Reference: ChEMBL document CHEMBL1131457, “cis-[PtCl2(4,7-H-5-methyl-7-oxo[1,2,4]triazolo[1,5-a]pyrimidine)2]: a sterically restrictive new cisplatin analogue. Reaction kinetics with model nucleobases, DNA interaction studies, antitumor activity, and structure-activity relationships” (J Med Chem, 1998)

Columns and labels:
Assay type in all cases: functional, cell-based
MCF7 [1] = assay: Cytotoxic effect (tumor cell growth inhibition) on the human cell line MCF-7 breast carcinoma at a dose of […]
A121 [2] = assay: Dose at which compound exhibits cytotoxicity in the A121 ovarian carcinoma cell line.; settings: Homo sapiens
A121 [3] = assay: Cytotoxic effect (tumor cell growth inhibition) on the human cell line A121 ovarian carcinoma at the dose of […]
MCF7 [4] = assay: Dose at which compound exhibits cytotoxicity in the MCF-7 cell line.; settings: Homo sapiens
A121 [5] = assay: Cytotoxic effect (tumor cell growth inhibition) on the human cell line A121 ovarian carcinoma at the dose of […]

## cis-[PtCl2(Hmtpo-N3)2].2H2O
MCF7 [1]
  Cytotoxic effect: 54.8%
A121 [2]
  ID50: 14.3 µM
A121 [3]
  Cytotoxic effect: 53%
MCF7 [4]
  ID50: 33.4 µM
A121 [5]
  Cytotoxic effect: 84%
